The numbers were not newly measured in patent publication US12589095B2, “Unit dosage form for transmucosal drug delivery of an active pharmaceutical ingredient” (Primo Pharmatech LLC, priority 2019, dated 2026), which cites them from elsewhere.

Like-named read-outs stand apart in the source and are kept apart here.

For the data set the following is noted: known / published value, cited from earlier work.

In the case of Polyethylene glycol 400 monolaurate, the HLB was 12.8. Regarding `CCCCCCCCCCCC(=O)OCCOCCO` [Diethylene glycol monolaurate], the HLB is given as 5.5. Take sorbitan monooleate [Span 80]: the HLB was 4.3. Further, the HLB (listed as Sorbitan mono-oleate (Span 80)) is recorded as 3.8. Consider `CCCCCCCC/C=C\CCCCCCCC(=O)[O-].[K+]` [Potassium oleate], for which the HLB is on record as 18.0. On to `CCCCCCCC/C=C\CCCCCCCC(=O)O` [Oleic acid], for which the HLB was 1.0. The HLB (listed as Oleic Acid) is reported as 1.

As to `CCCCCCCC/C=C\CCCCCCCC(=O)OCC(O)CO` (stereo not shown) [Glyceryl monooleate], the HLB is given as 3.4. For the compound `CCCCCCCC/C=C\CCCCCCCC(=O)[O-].[Na+]` [Sodium oleate], the HLB is on record as 16.9.

With `CCCCCCCCCCCCCCCCCC(=O)OCCOCCO` [Diethylene glycol monostearate], the HLB was 4.3. Glyceryl dioleate: the HLB was 1.8. Take “Polyoxyethylene lauryl ether [Polyoxyethylene lauryl ether (G-3705)]”: the HLB is 10.5. Consider `CCCCCCCCCCCCCCCCCC(=O)OCC(O)CO` (stereo not shown) [Glyceryl monostearate], for which the HLB is given as 2.1. On to Polyoxyethylene sorbitol wax derivative, for which the HLB was 2.0. On to “Polyethylene lauryl ether [Polyethylene lauryl ether (Brij 30)]”, for which the HLB was 8.6. Regarding “Polyoxyethylene monostearate [Polyoxyethylene monostearate (Myrj 45)]”, the HLB is listed as 10.8. In the case of Sorbitan monolaurate [SPAN 20], the HLB entry was “SPAN 20 (HLB8.6)”. The HLB (listed as Sorbitan monolaurate (Span 20)) is on record as 6.1. As for `CCCCCCCCCCCCCCCCCC(=O)OCC(O)CO` (stereo not shown) [Glyceryl monostearate (Tegin), Glyceryl monostearate], the HLB was 4.7.
